# Results: patent US20110040086A1, “Novel Beta-Lactam Antibiotics, Methods for Their Production, and Their Use” (DRITTE PATENTPORTFOLIO BETEILIGUNGSGESELLSCHAFT MB, priority 2007, published 2011)
# Tests used:
# [1] = tested on: S. aureus 520; test: agar diffusion test (Test System II, multi-resistant germs); assay type: cell-based, Staphylococcus aureus; parameters: key: r = resistant (no detectable zone of inhibition)
# In short: (§1)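 Discs loaded with 10-100 μg compound on McFarland 0.5 lawns of Müller-Hinton agar II; zone diameters read after 18-20 h at 37 °C.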
# [2] = tested on: S. aureus North Germany strain; test: as above; assay type: cell-based, Staphylococcus aureus; parameters: key: r = resistant (no detectable zone of inhibition)
# In short: as §1
# [3] = tested on: S. aureus 36881; test: as above; assay type: cell-based, Staphylococcus aureus; parameters: key: r = resistant (no detectable zone of inhibition)
# In short: as §1
# [4] = tested on: S. epidermidis 125; test: as above; assay type: cell-based, Staphylococcus epidermidis
# In short: as §1
# [5] = tested on: Staphylococcus aureus ATCC 6538; test: mouse infected with Staphylococcus aureus infection model (survival); assay type: in vivo, BALB/c mice; details: 2 × 0.5 mg (25 mg/kg) i.p.
# Method: Method for Effectiveness In Vivo with the Mouse Infected with Staphylococcus aureus Model
# On Day 0, at least 3 BALB/c mice per test substance (Table 8) or controls are pretreated with cyclophosphamide (250 mg/kg) in 250 μl PBS inta peritoneal (i.p.).
# On Day 2, the animals again received 100 mg/kg i.p.
# On Day 2, a colony of the test germ is transferred from a growing agar plate (Müller-Hinton-Agar, Beckton Dickinson) into a flask with 10 ml CASO broth (CASO-B., Soyabean peptone-Casein peptone broth, SIFIN, 30 g/l) and is cultivated overnight at 37° C. and a shaking frequency of 250 rpm.
# On Day 3, the pre-culture (Vk) is diluted 1:50 with CASO-B and further cultivated ca. 2 hours until an extinction in the medium of 0.6 at a wavelength of 550 nm is reached. Then, it is grown 1× with PBS at room temperature and set again to an extinction of 0.6.
# At least 3 animals for a test substance or controls are infected with 10 μl/g body weight grown germs of a bacteria suspension with the extinction 0.6 (ca. 10^10-10^12 CFU, Colony forming units) i.p.
# After 30 minutes, antibiotic solution is injected into the mice in a volume of 200 μl PBS with 3% DMSO i.p. 6 hours later, the second antibiotic injection is performed at the same concentration. […]
# [6] = tested on: S. aureus ATCC 6538; test: agar diffusion test (Test System II, multi-resistant germs); assay type: cell-based, Staphylococcus aureus
# In short: as §1
# [7] = tested on: S. aureus 38418; test: as above; assay type: cell-based, Staphylococcus aureus
# In short: as §1
# [8] = tested on: S. epidermidis 847; test: as above; assay type: cell-based, Staphylococcus epidermidis; parameters: key: r = resistant (no detectable zone of inhibition)
# In short: as §1
# [9] = logP value by HPLC according to Donovan et al.
# Method: • Operating temperature 18-24° C. • Flow 1.5 mL/min • Linear gradient (methanol/0.1% phosphoric acid pH 2) from 10% to 100% methanol in 9.4 min, equilibrium time between 2 runs 6 min
# ca. 0.5 mg of analyte is added to 0.5 ml of a standard solution (440 mg methyl phenyl sulfonate and 380 μl toluene in 150 mL methanol). 2 μl of this sample solution is injected.
# Because the distribution coefficients of the two standards running in each test are known, the distribution coefficient of the analytes can be determined from the relationships of the analyte/standard retention times.
# [10] = tested on: Enterococcus faecalis 769; test: agar diffusion test (Test System II, multi-resistant germs); assay type: cell-based; parameters: key: r = resistant (no detectable zone of inhibition)
# In short: as §1
# [11] = tested on: Staphylococcus aureus 315; test: as above; assay type: cell-based; parameters: key: r = resistant (no detectable zone of inhibition)
# In short: as §1
# [12] = tested on: S. aureus 39105; test: as above; assay type: cell-based, Staphylococcus aureus; parameters: key: r = resistant (no detectable zone of inhibition)
# In short: as §1
# [13] = tested on: S. aureus 34289; test: as above; assay type: cell-based, Staphylococcus aureus; parameters: key: r = resistant (no detectable zone of inhibition)
# In short: as §1
# [14] = tested on: S. aureus 33490; test: as above; assay type: cell-based, Staphylococcus aureus; parameters: key: r = resistant (no detectable zone of inhibition)
# In short: as §1
# [15] = tested on: S. aureus 526; test: as above; assay type: cell-based, Staphylococcus aureus; parameters: key: r = resistant (no detectable zone of inhibition)
# In short: as §1
# [16] = tested on: B. subtilis AWD 166; test: agar diffusion test (antimicrobial effect); assay type: cell-based, Bacillus subtilis
# In short: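 Nutrient agar seeded with B. subtilis AWD 166 to give dense non-confluent colonies; compounds in methanol or distilled water applied to discs at 10, 50, 100 μg. After 20 h at 37 °C, inhibition zone diameter measured in mm.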
# [17] = tested on: Escherichia coli SBUG 1135; test: agar diffusion test (Test System 1, antimicrobial effect); assay type: cell-based
# In short: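 E. coli SBUG 1135 grown 17 h at 37° C, 180 rpm, diluted 1:100 and seeded in nutrient agar at ~10^6 cells. Discs loaded with 10, 50 or 100 μg compound (methanol or water); inhibition-zone diameter (mm) read after 20 h at 37° C.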
# [18] = tested on: E. faecalis 945; test: agar diffusion test (Test System II, multi-resistant germs); assay type: cell-based, Enterococcus faecalis; parameters: key: r = resistant (no detectable zone of inhibition)
# In short: as §1
# [19] = tested on: S. epidermidis 1068; test: as above; assay type: cell-based, Staphylococcus epidermidis; parameters: key: r = resistant (no detectable zone of inhibition)
# In short: as §1
# [20] = tested on: S. epidermidis 1071; test: as above; assay type: cell-based, Staphylococcus epidermidis; parameters: key: r = resistant (no detectable zone of inhibition)
# In short: as §1
# [21] = tested on: S. epidermidis 563; test: as above; assay type: cell-based, Staphylococcus epidermidis; parameters: key: r = resistant (no detectable zone of inhibition)
# In short: as §1
# [22] = tested on: Bacillus megaterium SBUG 1152; test: agar diffusion test (Test System 1, antimicrobial effect); assay type: cell-based
# In short: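 B. megaterium SBUG 1152 grown overnight (17 h, 37° C., 180 rpm) and seeded at 10^6 cells per 10 ml nutrient agar. Compound at 10, 50 and 100 μg, dissolved in methanol or water, applied to paper discs. Inhibition-zone diameter (mm) read after 20 h at 37° C.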
smiles,measurement,setting,value
"O=C(O)C1=C(Cl)CC2C(=O)C(NC(=O)C(NC3=C(C(=O)NCCO)C(=O)C=CC3=O)c3ccccc3)C2N1 (stereo not drawn) [1m, 3-chlorine-7-{2-[2-(2-hydroxyethylcarbamoyl)-3,6-dioxocyclohexa-1,4-dienylamino]-2-phenyl-acetylamino}-8-oxo-5-azabicyclo[4.2.0]oct-3-ene-4-carboxylic acid]",Diameter of zone of inhibition,[1]; Quantity n [mol] 0.018,r
same,Diameter of zone of inhibition,[1]; Quantity n [mol] 0.092,r
same,Diameter of zone of inhibition,[1]; Quantity n [mol] 0.18,8 mm
same,Diameter of zone of inhibition,[2]; Quantity n 0.018,r
same,Diameter of zone of inhibition,[2]; Quantity n 0.092,r
same,Diameter of zone of inhibition,[2]; Quantity n 0.18,12 mm
same,Diameter of zone of inhibition,[3]; Quantity n 0.018,r
same,Diameter of zone of inhibition,[3]; Quantity n 0.092,16 mm
same,Diameter of zone of inhibition,[3]; Quantity n 0.18,20 mm
same,Diameter of zone of inhibition,[4]; Quantity n 0.018,20 mm
same,Diameter of zone of inhibition,[4]; Quantity n 0.092,26 mm
same,Diameter of zone of inhibition,[4]; Quantity n 0.18,28 mm
same,Survival/tested mice n/n,[5],9/9
same,Diameter of zone of inhibition,[6]; Quantity n 0.018,22 mm
same,Diameter of zone of inhibition,[6]; Quantity n 0.092,>30 mm
same,Diameter of zone of inhibition,[6]; Quantity n 0.18,>30 mm
same,Diameter of zone of inhibition,[7]; Quantity n [mol] 0.018,20 mm
same,Diameter of zone of inhibition,[7]; Quantity n [mol] 0.092,30 mm
same,Diameter of zone of inhibition,[7]; Quantity n [mol] 0.18,>30 mm
same,Diameter of zone of inhibition,[8]; Quantity n [mol] 0.018,r
same,Diameter of zone of inhibition,[8]; Quantity n [mol] 0.092,14 mm
same,Diameter of zone of inhibition,[8]; Quantity n [mol] 0.18,18 mm
same,logP value,"[9]; HPLC, methanol/0.1% phosphoric acid pH 2",1.62
same,Diameter of zone of inhibition,[10]; Quantity n 0.018,r
same,Diameter of zone of inhibition,[10]; Quantity n 0.092,r
same,Diameter of zone of inhibition,[10]; Quantity n 0.18,r
same,Diameter of zone of inhibition,[11]; Quantity n 0.018,r
same,Diameter of zone of inhibition,[11]; Quantity n 0.092,r
same,Diameter of zone of inhibition,[11]; Quantity n 0.18,8 mm
"N[C@@H](C(=O)N[C@@H]1C(=O)N2C(C(=O)O)=C(Cl)CS[C@H]12)c1ccccc1 [2c, Cefaclor, reference compound]",Diameter of zone of inhibition,[12]; Quantity n 0.019,22 mm
same,Diameter of zone of inhibition,[12]; Quantity n 0.1,24 mm
same,Diameter of zone of inhibition,[12]; Quantity n 0.19,28 mm
same,Diameter of zone of inhibition,[1]; Quantity n [mol] 0.019,r
same,Diameter of zone of inhibition,[1]; Quantity n [mol] 0.1,10 mm
same,Diameter of zone of inhibition,[1]; Quantity n [mol] 0.19,14 mm
same,Diameter of zone of inhibition,[2]; Quantity n 0.019,r
same,Diameter of zone of inhibition,[2]; Quantity n 0.1,10 mm
same,Diameter of zone of inhibition,[2]; Quantity n 0.19,14 mm
same,Diameter of zone of inhibition,[13]; Quantity n [mol] 0.019,r
same,Diameter of zone of inhibition,[13]; Quantity n [mol] 0.1,r
same,Diameter of zone of inhibition,[13]; Quantity n [mol] 0.19,10 mm
same,Diameter of zone of inhibition,[14]; Quantity n [μmol] 0.019,24 mm
same,Diameter of zone of inhibition,[14]; Quantity n [μmol] 0.1,30 mm
same,Diameter of zone of inhibition,[14]; Quantity n [μmol] 0.19,32 mm
same,Diameter of zone of inhibition,[3]; Quantity n 0.019,r
same,Diameter of zone of inhibition,[3]; Quantity n 0.1,12 mm
same,Diameter of zone of inhibition,[3]; Quantity n 0.19,18 mm
same,Diameter of zone of inhibition,[15]; Quantity n 0.019,r
same,Diameter of zone of inhibition,[15]; Quantity n 0.1,8 mm
same,Diameter of zone of inhibition,[15]; Quantity n 0.19,12 mm
same,Diameter of zone of inhibition,[16]; Quantity n 0.019,36 mm
same,Diameter of zone of inhibition,[16]; Quantity n 0.1,38 mm
same,Diameter of zone of inhibition,[16]; Quantity n 0.19,40 mm
same,Diameter of zone of inhibition,[4]; Quantity n 0.019,26 mm
same,Diameter of zone of inhibition,[4]; Quantity n 0.1,34 mm
same,Diameter of zone of inhibition,[4]; Quantity n 0.19,36 mm
same,Diameter of zone of inhibition,[6]; Quantity n 0.019,30 mm
same,Diameter of zone of inhibition,[6]; Quantity n 0.1,38 mm
same,Diameter of zone of inhibition,[6]; Quantity n 0.19,40 mm
same,Diameter of zone of inhibition,[7]; Quantity n [mol] 0.019,26 mm
same,Diameter of zone of inhibition,[7]; Quantity n [mol] 0.1,34 mm
same,Diameter of zone of inhibition,[7]; Quantity n [mol] 0.19,38 mm
same,Diameter of zone of inhibition,[17]; Quantity n 0.019,24 mm
same,Diameter of zone of inhibition,[17]; Quantity n 0.1,30 mm
same,Diameter of zone of inhibition,[17]; Quantity n 0.19,32 mm
same,Diameter of zone of inhibition,[18]; Quantity n 0.019,r
same,Diameter of zone of inhibition,[18]; Quantity n 0.1,8 mm
same,Diameter of zone of inhibition,[18]; Quantity n 0.19,12 mm
same,Diameter of zone of inhibition,[19]; Quantity n 0.019,22 mm
same,Diameter of zone of inhibition,[19]; Quantity n 0.1,24 mm
same,Diameter of zone of inhibition,[19]; Quantity n 0.19,30 mm
same,Diameter of zone of inhibition,[8]; Quantity n [mol] 0.019,14 mm
same,Diameter of zone of inhibition,[8]; Quantity n [mol] 0.1,24 mm
same,Diameter of zone of inhibition,[8]; Quantity n [mol] 0.19,28 mm
same,Diameter of zone of inhibition,[20]; Quantity n 0.019,28 mm
same,Diameter of zone of inhibition,[20]; Quantity n 0.1,30 mm
same,Diameter of zone of inhibition,[20]; Quantity n 0.19,32 mm
same,Diameter of zone of inhibition,[21]; Quantity n 0.019,30 mm
same,Diameter of zone of inhibition,[21]; Quantity n 0.1,34 mm
same,Diameter of zone of inhibition,[21]; Quantity n 0.19,36 mm
same,chromatographic logP,"[9]; HPLC with methanol/0.1% phosphoric acid gradient, pH 2",-3.28
same,Diameter of zone of inhibition,[10]; Quantity n 0.019,r^2
same,Diameter of zone of inhibition,[10]; Quantity n 0.1,8 mm
same,Diameter of zone of inhibition,[10]; Quantity n 0.19,14 mm
same,Diameter of zone of inhibition,[11]; Quantity n 0.019,r
same,Diameter of zone of inhibition,[11]; Quantity n 0.1,10 mm
same,Diameter of zone of inhibition,[11]; Quantity n 0.19,12 mm
same,Diameter of zone of inhibition,[22]; Quantity n 0.019,36^1 mm
same,Diameter of zone of inhibition,[22]; Quantity n 0.1,38 mm
same,Diameter of zone of inhibition,[22]; Quantity n 0.19,40 mm
